Reference: the supplement of paper PMC12463676, “Small-molecule dissolution of stress granules by redox modulation benefits ALS models” (Nature Chemical Biology, 2025)

Assays:
lipoamide = compound: NC(=O)CCCCC1CCSS1 [lipoamide]; test: thermal stability z-score vs DMSO; higher = more thermally stabilized by treatment; conditions: HeLa, lipoamide concentration 100 µM
Description: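 Cellular thermal proteome profiling in HeLa cells. Cells were treated with 100 µM lipoamide for 1 h, with or without 1 mM arsenate for a further 1 h, then heated to ten temperatures (37-66.3 °C), and soluble protein was quantified by TMT mass spectrometry relative to 0.1% DMSO controls. The thermal stability score (sum of log2 fold changes minus the abundance score) was transformed to a z-score; mean of n = 3 experiments.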

potassium arsenate = compound: O=[As]([O-])(O)O.[K+] [potassium arsenate]; test: as above; conditions: HeLa; arsenate concentration 1 mM
Description: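 Cellular thermal proteome profiling in HeLa cells treated with 1 mM arsenate for 1 h (DMSO pretreatment), heated to ten temperatures (37-66.3 °C). Soluble protein was quantified by TMT mass spectrometry relative to DMSO controls; the thermal stability score was transformed to a z-score; mean of n = 3 experiments.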

[1] = arsenate co-treatment: 1 mM arsenate 1 h
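Also: each temperature applied for 3 min, abundance score taken as mean log2 fold change at the two lowest temperatures, z-score obtained by mean subtraction and division by SD.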

Sequence of UniProt P41208 (P41208 whole entry): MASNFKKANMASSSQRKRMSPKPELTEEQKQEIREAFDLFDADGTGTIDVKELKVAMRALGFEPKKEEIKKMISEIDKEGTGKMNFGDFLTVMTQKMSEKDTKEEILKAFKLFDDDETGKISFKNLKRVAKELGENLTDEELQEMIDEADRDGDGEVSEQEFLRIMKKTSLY
Sequence of UniProt P84157 (P84157 whole entry): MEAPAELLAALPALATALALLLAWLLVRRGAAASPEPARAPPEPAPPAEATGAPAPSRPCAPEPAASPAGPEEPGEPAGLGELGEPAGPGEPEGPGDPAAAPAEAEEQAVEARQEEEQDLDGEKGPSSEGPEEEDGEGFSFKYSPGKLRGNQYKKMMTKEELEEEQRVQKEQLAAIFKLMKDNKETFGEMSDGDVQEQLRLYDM
Sequence of UniProt P33240 (P33240 whole entry): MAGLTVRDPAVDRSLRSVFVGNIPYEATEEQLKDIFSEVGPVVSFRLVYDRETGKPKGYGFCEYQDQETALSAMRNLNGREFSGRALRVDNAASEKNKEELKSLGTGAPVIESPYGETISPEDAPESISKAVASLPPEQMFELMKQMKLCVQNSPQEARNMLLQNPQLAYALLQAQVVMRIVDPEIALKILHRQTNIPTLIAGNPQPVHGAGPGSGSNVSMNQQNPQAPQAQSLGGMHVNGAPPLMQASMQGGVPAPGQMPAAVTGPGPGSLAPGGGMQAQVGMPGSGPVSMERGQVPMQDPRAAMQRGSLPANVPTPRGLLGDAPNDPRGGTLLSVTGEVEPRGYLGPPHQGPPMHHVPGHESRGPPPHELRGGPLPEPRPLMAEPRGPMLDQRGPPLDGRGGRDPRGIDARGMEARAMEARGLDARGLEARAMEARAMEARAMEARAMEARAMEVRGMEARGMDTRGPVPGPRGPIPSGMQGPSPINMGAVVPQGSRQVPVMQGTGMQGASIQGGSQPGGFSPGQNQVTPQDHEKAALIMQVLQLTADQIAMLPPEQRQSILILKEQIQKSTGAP
Sequence of UniProt Q6AWC2 (Q6AWC2 whole entry): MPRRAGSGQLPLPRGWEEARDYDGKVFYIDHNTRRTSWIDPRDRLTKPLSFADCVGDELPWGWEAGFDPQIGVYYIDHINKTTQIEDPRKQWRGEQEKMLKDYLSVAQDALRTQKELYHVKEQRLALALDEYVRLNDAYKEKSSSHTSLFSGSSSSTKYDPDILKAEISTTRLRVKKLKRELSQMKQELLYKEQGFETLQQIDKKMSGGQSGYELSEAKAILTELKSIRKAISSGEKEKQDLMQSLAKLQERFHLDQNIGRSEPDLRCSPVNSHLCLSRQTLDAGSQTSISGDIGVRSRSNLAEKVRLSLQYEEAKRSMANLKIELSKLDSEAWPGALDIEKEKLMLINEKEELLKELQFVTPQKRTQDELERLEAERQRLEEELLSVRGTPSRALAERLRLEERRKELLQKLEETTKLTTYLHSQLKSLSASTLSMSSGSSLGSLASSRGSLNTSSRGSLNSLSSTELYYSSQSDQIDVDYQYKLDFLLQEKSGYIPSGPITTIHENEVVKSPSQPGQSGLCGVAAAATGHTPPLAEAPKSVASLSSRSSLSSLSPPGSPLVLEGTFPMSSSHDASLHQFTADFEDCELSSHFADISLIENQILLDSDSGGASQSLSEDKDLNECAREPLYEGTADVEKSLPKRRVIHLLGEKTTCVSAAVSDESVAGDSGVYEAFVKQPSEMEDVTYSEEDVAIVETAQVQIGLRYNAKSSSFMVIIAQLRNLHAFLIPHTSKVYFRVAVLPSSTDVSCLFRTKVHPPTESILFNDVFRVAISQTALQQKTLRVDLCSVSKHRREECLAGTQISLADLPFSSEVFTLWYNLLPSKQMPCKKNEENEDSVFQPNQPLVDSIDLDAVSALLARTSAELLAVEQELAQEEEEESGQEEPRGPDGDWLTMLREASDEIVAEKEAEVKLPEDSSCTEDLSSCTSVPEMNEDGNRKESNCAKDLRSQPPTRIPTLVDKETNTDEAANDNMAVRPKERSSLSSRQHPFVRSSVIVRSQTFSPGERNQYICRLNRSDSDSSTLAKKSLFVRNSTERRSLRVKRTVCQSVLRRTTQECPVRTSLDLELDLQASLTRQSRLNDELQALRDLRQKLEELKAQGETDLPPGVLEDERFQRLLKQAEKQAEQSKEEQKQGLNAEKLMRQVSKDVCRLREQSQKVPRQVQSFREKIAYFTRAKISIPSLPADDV
Sequence of UniProt Q52LW3 (Q52LW3 whole entry): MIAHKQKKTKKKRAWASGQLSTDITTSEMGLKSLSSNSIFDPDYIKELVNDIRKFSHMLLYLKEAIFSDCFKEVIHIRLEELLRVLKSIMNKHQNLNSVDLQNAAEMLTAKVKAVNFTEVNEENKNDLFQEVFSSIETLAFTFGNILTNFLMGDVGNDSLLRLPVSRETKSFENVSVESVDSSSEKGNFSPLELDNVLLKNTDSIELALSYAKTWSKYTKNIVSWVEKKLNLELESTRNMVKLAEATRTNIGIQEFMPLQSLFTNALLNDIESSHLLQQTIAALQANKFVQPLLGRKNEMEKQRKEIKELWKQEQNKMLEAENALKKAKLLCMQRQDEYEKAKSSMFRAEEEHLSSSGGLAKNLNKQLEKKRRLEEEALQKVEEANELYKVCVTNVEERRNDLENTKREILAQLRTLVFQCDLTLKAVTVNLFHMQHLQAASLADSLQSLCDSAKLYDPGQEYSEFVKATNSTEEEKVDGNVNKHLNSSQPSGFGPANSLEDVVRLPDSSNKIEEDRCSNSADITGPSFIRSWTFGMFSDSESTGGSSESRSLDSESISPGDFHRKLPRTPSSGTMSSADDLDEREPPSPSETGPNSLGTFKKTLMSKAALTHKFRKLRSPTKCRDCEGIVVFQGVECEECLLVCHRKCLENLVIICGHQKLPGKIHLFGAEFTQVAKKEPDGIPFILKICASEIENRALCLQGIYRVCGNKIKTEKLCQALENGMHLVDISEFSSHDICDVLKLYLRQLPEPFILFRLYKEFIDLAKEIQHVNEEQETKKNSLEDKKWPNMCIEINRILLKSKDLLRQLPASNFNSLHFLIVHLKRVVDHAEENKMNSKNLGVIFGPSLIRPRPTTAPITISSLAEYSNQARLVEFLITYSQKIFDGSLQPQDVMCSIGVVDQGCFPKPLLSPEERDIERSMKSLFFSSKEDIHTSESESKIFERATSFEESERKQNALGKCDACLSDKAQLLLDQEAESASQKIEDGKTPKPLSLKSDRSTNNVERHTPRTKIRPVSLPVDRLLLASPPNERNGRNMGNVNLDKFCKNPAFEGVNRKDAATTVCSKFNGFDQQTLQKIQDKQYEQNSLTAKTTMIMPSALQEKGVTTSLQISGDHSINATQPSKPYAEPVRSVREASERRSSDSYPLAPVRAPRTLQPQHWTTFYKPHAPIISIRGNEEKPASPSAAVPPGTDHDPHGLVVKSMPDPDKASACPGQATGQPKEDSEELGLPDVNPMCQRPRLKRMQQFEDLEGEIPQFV
Sequence of UniProt Q9NZT2 (Q9NZT2 whole entry): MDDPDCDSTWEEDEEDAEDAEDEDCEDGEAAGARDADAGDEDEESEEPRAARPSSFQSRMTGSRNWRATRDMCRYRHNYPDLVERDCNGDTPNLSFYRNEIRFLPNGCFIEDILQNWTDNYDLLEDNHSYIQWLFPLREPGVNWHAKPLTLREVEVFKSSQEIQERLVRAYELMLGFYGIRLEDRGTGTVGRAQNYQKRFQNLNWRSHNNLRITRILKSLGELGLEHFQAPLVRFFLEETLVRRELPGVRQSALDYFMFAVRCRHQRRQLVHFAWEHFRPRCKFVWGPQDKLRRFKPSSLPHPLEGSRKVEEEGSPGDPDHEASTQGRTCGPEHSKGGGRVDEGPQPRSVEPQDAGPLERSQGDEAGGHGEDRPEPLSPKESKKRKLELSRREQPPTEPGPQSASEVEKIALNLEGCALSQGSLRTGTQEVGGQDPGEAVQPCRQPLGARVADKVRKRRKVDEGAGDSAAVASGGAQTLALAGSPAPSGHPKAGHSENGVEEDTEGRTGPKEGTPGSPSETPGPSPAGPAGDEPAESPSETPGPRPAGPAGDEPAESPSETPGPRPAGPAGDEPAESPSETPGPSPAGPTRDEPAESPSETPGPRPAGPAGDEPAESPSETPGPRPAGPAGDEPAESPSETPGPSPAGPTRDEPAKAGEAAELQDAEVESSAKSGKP
Sequence of UniProt A1L0T0 (A1L0T0 whole entry): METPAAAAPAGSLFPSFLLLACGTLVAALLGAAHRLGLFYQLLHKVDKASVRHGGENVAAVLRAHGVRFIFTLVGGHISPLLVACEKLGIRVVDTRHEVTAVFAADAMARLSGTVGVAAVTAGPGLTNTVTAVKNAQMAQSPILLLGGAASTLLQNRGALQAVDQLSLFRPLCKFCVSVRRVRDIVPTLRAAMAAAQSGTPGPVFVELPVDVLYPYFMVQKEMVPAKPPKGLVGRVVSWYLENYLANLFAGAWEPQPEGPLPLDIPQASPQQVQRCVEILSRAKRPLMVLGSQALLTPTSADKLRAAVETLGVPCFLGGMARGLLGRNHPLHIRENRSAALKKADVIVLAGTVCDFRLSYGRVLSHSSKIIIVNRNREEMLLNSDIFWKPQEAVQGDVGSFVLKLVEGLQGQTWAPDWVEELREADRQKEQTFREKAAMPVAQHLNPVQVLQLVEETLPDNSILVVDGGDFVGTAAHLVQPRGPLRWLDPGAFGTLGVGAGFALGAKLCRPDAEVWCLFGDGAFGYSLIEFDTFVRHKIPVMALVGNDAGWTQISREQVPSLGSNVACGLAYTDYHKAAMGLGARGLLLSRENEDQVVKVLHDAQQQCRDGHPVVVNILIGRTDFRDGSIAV
Sequence of UniProt P14550 (P14550 whole entry): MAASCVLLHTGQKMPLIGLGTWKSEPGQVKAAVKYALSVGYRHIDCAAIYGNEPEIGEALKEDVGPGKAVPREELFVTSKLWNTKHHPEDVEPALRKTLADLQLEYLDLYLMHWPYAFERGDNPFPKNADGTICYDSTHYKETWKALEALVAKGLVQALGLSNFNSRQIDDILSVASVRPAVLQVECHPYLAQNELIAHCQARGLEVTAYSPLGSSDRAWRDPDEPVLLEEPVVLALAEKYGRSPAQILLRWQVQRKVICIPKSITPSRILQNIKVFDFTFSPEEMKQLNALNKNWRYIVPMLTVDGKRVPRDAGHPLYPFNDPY

Target | thermal stability z-score (lipoamide; [1]) | thermal stability z-score (lipoamide; arsenate co-treatment: none) | thermal stability z-score (potassium arsenate)
STOML2 (UniProt Q9UJZ1) | -0.324 | 0.0393 | -0.147
ARHGAP29 (UniProt Q52LW3) | -0.215 | -0.998 | -1.28
CYB5R1 (UniProt Q9UHQ9) | 1.47 | 0.244 | -2.32
NOL6 (UniProt Q9H6R4) | 0.328 | -0.0357 | -0.592
CETN2 (UniProt P41208) | 0.767 | 0.569 | 0.798
PPM1F (UniProt P49593) | -0.361 | -0.757 | -0.617
CLSPN (UniProt Q9HAW4) | -0.352 | 0.214 | 1.12
CLNS1A (UniProt P54105) | 0.733 | 0.695 | -1.75
VPS13A (UniProt Q96RL7) | 1.04 | 0.949 | 0.945
MRPL9 (UniProt Q9BYD2) | -0.106 | 0.203 | 0.232
ATP5F1 (UniProt P24539) | -0.648 | -0.133 | 0.226
YWHAQ (UniProt P27348) | 0.857 | 0.727 | 0.199
PMS2 (UniProt P54278) | -0.198 | -0.101 | -0.0209
GLTP (UniProt Q9NZD2) | 0.912 | 0.581 | 0.72
STX5 (UniProt Q13190) | 0.00395 | -0.95 | 0.0014
PPP4R2 (UniProt Q9NY27) | -0.326 | 0.221 | -0.136
POMGNT1 (UniProt Q8WZA1) | -0.429 | 0.0715 | -0.0541
VPS51 (UniProt Q9UID3) | -0.0785 | 0.169 | -0.285
CSNK2A1 (UniProt P68400) | 0.541 | 0.00111 | 0.489
CSTF2 (UniProt P33240) | 1.09 | 0.979 | 0.756
CMIP (UniProt Q8IY22) | -0.151 | -0.146 | -0.236
GFM1 (UniProt Q96RP9) | -0.469 | 0.0798 | -1.15
GET4 (UniProt Q7L5D6) | -0.844 | -0.0598 | 0.752
TMEM41A (UniProt Q96HV5) | 0.652 | 0.936 | 0.885
TUBA1C (UniProt Q9BQE3) | -0.163 | 0.681 | -0.265
MXRA7 (UniProt P84157) | 0.254 | 0.307 | -0.34
AMMECR1 (UniProt Q9Y4X0) | -0.157 | -0.0642 | -0.217
MSH6 (UniProt P52701) | 0.0377 | 0.218 | -0.142

Target | thermal stability z-score (lipoamide; [1]) | thermal stability z-score (lipoamide; arsenate co-treatment: none) | thermal stability z-score (potassium arsenate)
C19ORF53 (UniProt Q9UNZ5) | 0.3 | 0.508 | -0.988
DNAJC8 (UniProt O75937) | 0.653 | 0.49 | 1.25
DDX28 (UniProt Q9NUL7) | -0.0583 | 0.0995 | 0.0334
RABGAP1L | -0.279 | -0.536 | 0.339
SEC31A (UniProt O94979) | 0.00351 | -0.104 | 0.497
RING1 (UniProt Q06587) | -0.0364 | 0.0555 | -0.0985
ZNF207 (UniProt O43670) | 0.132 | -0.22 | 0.167
ILVBL (UniProt A1L0T0) | 1.34 | 0.509 | 0.772
IFT122 (UniProt Q9HBG6) | 0.185 | 0.177 | 0.188
CTAG2 (UniProt O75638) | -0.394 | 0.0387 | 0.617
HTATIP2 (UniProt Q9BUP3) | -0.914 | -0.584 | 0.453
TOMM34 (UniProt Q15785) | 0.52 | 0.356 | -0.0204
PRDX3 (UniProt P30048) | 0.429 | 0.812 | -0.448
LDB1 (UniProt Q86U70) | 0.244 | 1.15 | -0.783
RER1 (UniProt O15258) | 0.802 | 0.615 | 0.934
PUS7 (UniProt Q96PZ0) | -0.447 | 0.26 | 0.651
DPCD (UniProt Q9BVM2) | -0.929 | -0.513 | 0.0166
WWC2 (UniProt Q6AWC2) | -0.0127 | -0.0518 | -0.129
PPP1R12A (UniProt O14974) | 1.32 | 0.52 | 0.979
RNF34 (UniProt Q969K3) | -0.0298 | 0.0211 | -0.392
PM20D2 (UniProt Q8IYS1) | 0.623 | 1.29 | 1.81
XPO5 (UniProt Q9HAV4) | -0.576 | -0.108 | -0.103
UGT8 (UniProt Q16880) | 0.0311 | -0.0518 | 0.235
AKR1A1 (UniProt P14550) | 0.441 | -0.302 | -0.0811
ZWILCH (UniProt Q9H900) | -0.3 | -0.512 | -0.55
LRRC41 (UniProt Q15345) | -0.134 | -0.26 | -0.546
OGFR (UniProt Q9NZT2) | 0.681 | 0.943 | 1.72
